Measurements from ChEMBL document CHEMBL4800728, “Data for DCP probe JNJ-54119936” (2021).

How the values were obtained:
[1] = target: Nuclear receptor ROR-alpha (Homo sapiens) (UniProt P35398); test: ThermoFluor Binding Assay (RORA)
[2] = target: Nuclear receptor ROR-beta (Homo sapiens) (UniProt Q92753); test: ThermoFluor Binding Assay (RORB)
Chain of Nuclear receptor ROR-beta (Homo sapiens) (Q92753 whole entry): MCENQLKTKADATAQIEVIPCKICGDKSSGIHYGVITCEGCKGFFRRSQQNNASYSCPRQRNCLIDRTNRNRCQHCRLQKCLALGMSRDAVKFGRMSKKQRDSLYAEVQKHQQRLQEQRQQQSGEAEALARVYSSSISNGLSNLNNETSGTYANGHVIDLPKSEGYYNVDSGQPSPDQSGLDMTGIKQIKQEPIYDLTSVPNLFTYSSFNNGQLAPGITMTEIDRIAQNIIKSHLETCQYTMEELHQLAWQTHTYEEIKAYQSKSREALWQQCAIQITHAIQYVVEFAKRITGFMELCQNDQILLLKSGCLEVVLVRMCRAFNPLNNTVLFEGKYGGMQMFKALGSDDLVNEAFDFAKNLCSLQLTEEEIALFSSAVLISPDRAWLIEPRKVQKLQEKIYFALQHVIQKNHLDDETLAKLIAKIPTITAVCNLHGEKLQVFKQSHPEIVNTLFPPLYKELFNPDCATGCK

Chain of Nuclear receptor ROR-alpha (Homo sapiens) (P35398 whole entry): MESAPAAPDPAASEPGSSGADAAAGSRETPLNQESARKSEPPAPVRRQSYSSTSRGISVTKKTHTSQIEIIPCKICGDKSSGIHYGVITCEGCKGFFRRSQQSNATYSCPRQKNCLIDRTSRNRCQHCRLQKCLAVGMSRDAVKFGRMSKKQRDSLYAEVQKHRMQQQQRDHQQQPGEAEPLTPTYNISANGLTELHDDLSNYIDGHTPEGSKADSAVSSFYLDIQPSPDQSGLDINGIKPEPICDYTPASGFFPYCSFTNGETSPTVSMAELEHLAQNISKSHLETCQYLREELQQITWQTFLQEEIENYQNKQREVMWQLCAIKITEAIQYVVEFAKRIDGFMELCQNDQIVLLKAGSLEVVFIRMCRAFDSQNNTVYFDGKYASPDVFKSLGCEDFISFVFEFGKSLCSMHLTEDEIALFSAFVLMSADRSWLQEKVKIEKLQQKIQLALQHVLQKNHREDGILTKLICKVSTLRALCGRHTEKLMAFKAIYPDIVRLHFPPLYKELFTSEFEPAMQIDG

COc1nc2ccc([C@@](O)(c3ccc(Cl)cc3)c3cncn3C)cc2c(Cl)c1Cc1ccc(-n2cccn2)cc1
qKD [1]: 16.8 µM
qKD [2]: 40 µM
